{
  "source": "paper PMC5218480",
  "about": "(PLoS ONE, 2017)",
  "tested_on": "MV-4-11 cells",
  "assay": "Gene expression microarray analysis (Affymetrix PrimeView) and GSEA",
  "format": "cell-based, human",
  "set-up": "RFU PODN (11730768_x_at) / Fold change /veh PODN (11730768_x_at) / RFU LINC00158 (11744669_a_at) / Fold change /veh LINC00158 (11744669_a_at) / RFU DUSP10 (11751237_a_at) / Fold change /veh DUSP10 (11751237_a_at) / RFU ID3 (11757404_x_at) / Fold change /veh ID3 (11757404_x_at) / RFU PLEKHG5 (11737974_s_at) / Fold change /veh PLEKHG5 (11737974_s_at) / RFU LRRC4B (11730491_at) / Fold change /veh LRRC4B (11730491_at) / RFU GIMAP4 (11747438_a_at) / Fold change /veh GIMAP4 (11747438_a_at) / RFU KRT8 (11758183_x_at) / Fold change /veh KRT8 (11758183_x_at) / RFU CNN1 (11734310_a_at) / Fold change /veh CNN1 (11734310_a_at) / RFU VPS37D (11726825_at) / Fold change /veh VPS37D (11726825_at) / RFU C10orf10 (11716522_x_at) / Fold change /veh C10orf10 (11716522_x_at) / RFU KIR2DL2 /// KIR2DL4 /// KIR2DL5A /// KIR2DL5B /// KIR2DS1 /// KIR2DS2 /// KIR2DS3 /// KIR2DS4 /// KIR3DL3 /// KIR3DL3 /// KIR3DS1 (11738374_at) / Fold change /veh KIR2DL2 /// KIR2DL4 /// KIR2DL5A /// KIR2DL5B /// KIR2DS1 /// KIR2DS2 /// KIR2DS3 /// KIR2DS4 /// KIR3DL3 /// KIR3DL3 /// KIR3DS1 (11738374_at) / RFU C1QL1 (11718748_at) / Fold change /veh C1QL1 (11718748_at) / RFU TMPRSS4 (11747572_a_at) / Fold change /veh TMPRSS4 (11747572_a_at) / RFU HAMP (11756126_x_at) / Fold change /veh HAMP (11756126_x_at) / RFU RNFT2 (11725882_a_at) / Fold change /veh RNFT2 (11725882_a_at) / RFU NR4A2 (11747474_a_at) / Fold change /veh NR4A2 (11747474_a_at) / RFU ABCC12 (11746883_a_at) / Fold change /veh ABCC12 (11746883_a_at) / RFU TMEM136 (11760407_x_at) / Fold change /veh TMEM136 (11760407_x_at) / RFU CLDN22 /// WWC2 (11732394_at) / Fold change /veh CLDN22 /// WWC2 (11732394_at) / RFU HLA-DPB1 (11760878_x_at) / Fold change /veh HLA-DPB1 (11760878_x_at) / RFU SPINT1 (11716480_a_at) / Fold change /veh SPINT1 (11716480_a_at) / RFU GAP43 (11754022_s_at) / Fold change /veh GAP43 (11754022_s_at) / RFU A4GNT (11735810_at) / Fold change /veh A4GNT (11735810_at) / RFU PRB3 (11715151_x_at) / Fold change /veh PRB3 (11715151_x_at) / RFU TUBB4B (11761932_at) / Fold change /veh TUBB4B (11761932_at) / RFU CAPN14 (11732068_a_at) / Fold change /veh CAPN14 (11732068_a_at) / RFU TMCC2 (11721928_a_at) / Fold change /veh TMCC2 (11721928_a_at) / RFU IRGQ (11745062_a_at) / Fold change /veh IRGQ (11745062_a_at) / RFU FAM174B (11720279_a_at) / Fold change /veh FAM174B (11720279_a_at) / RFU TMPRSS4 (11748680_a_at) / Fold change /veh TMPRSS4 (11748680_a_at) / RFU FAM212B (11763350_a_at) / Fold change /veh FAM212B (11763350_a_at) / RFU PLEKHG5 (11743358_a_at) / Fold change /veh PLEKHG5 (11743358_a_at) / RFU ZSCAN30 (11745921_a_at) / Fold change /veh ZSCAN30 (11745921_a_at) / RFU CMKLR1 (11741424_a_at) / Fold change /veh CMKLR1 (11741424_a_at) / RFU LOC101060620 /// MAPK8IP1 (11723275_at) / Fold change /veh LOC101060620 /// MAPK8IP1 (11723275_at) / RFU SPTSSB (11747773_x_at) / Fold change /veh SPTSSB (11747773_x_at) / RFU PRSS12 (11739890_at) / Fold change /veh PRSS12 (11739890_at) / RFU BIN1 (11741810_x_at) / Fold change /veh BIN1 (11741810_x_at) / RFU WNT11 (11732464_a_at) / Fold change /veh WNT11 (11732464_a_at) / RFU C10orf10 (11716521_a_at) / Fold change /veh C10orf10 (11716521_a_at) / RFU C5orf56 (11738089_at) / Fold change /veh C5orf56 (11738089_at) / RFU CYB561 (11721691_x_at) / Fold change /veh CYB561 (11721691_x_at) / RFU ANKRD19P (11752326_a_at) / Fold change /veh ANKRD19P (11752326_a_at) / RFU OR2T12 /// OR2T33 /// OR2T8 (11738714_s_at) / Fold change /veh OR2T12 /// OR2T33 /// OR2T8 (11738714_s_at) / RFU VCAN (11748164_a_at) / Fold change /veh VCAN (11748164_a_at) / RFU JSRP1 (11732532_at) / Fold change /veh JSRP1 (11732532_at) / RFU KRTAP10-11 (11738290_x_at) / Fold change /veh KRTAP10-11 (11738290_x_at) / RFU MYO3A (11730013_a_at) / Fold change /veh MYO3A (11730013_a_at) / RFU EBF3 (11725865_a_at) / Fold change /veh EBF3 (11725865_a_at) / RFU CAMK2N1 (11719241_x_at) / Fold change /veh CAMK2N1 (11719241_x_at) / RFU C5orf56 (11738088_a_at) / Fold change /veh C5orf56 (11738088_a_at) / RFU OLFML3 (11715873_a_at) / Fold change /veh OLFML3 (11715873_a_at) / RFU LOC100653217 /// NTM (11731650_a_at) / Fold change /veh LOC100653217 /// NTM (11731650_a_at) / RFU MAPK11 (11762145_a_at) / Fold change /veh MAPK11 (11762145_a_at) / RFU FIZ1 (11724087_x_at) / Fold change /veh FIZ1 (11724087_x_at) / RFU OASL (11726364_x_at) / Fold change /veh OASL (11726364_x_at) / RFU SOX15 (11748057_x_at) / Fold change /veh SOX15 (11748057_x_at) / RFU CD79A (11719716_a_at) / Fold change /veh CD79A (11719716_a_at) / RFU HIST1H1D (11736915_at) / Fold change /veh HIST1H1D (11736915_at) / RFU CASKIN2 (11723855_a_at) / Fold change /veh CASKIN2 (11723855_a_at) / RFU LOC730098 (11760151_x_at) / Fold change /veh LOC730098 (11760151_x_at) / RFU OR4N2 (11742367_at) / Fold change /veh OR4N2 (11742367_at) / RFU PRRT2 (11749266_a_at) / Fold change /veh PRRT2 (11749266_a_at) / RFU SNX32 (11753110_a_at) / Fold change /veh SNX32 (11753110_a_at) / RFU CDHR5 (11726645_a_at) / Fold change /veh CDHR5 (11726645_a_at) / RFU RCAN1 (11760418_a_at) / Fold change /veh RCAN1 (11760418_a_at) / RFU FAM167A (11723789_a_at) / Fold change /veh FAM167A (11723789_a_at) / RFU FAM26E (11764081_at) / Fold change /veh FAM26E (11764081_at) / RFU ISYNA1 (11749810_s_at) / Fold change /veh ISYNA1 (11749810_s_at) / RFU ACY1 (11761880_at) / Fold change /veh ACY1 (11761880_at) / RFU 11764098_at / Fold change /veh 11764098_at / RFU SAMD14 (11745864_x_at) / Fold change /veh SAMD14 (11745864_x_at) / RFU NPB (11741838_a_at) / Fold change /veh NPB (11741838_a_at) / RFU TMPRSS6 (11731388_a_at) / Fold change /veh TMPRSS6 (11731388_a_at) / RFU KRTAP10-2 (11738614_at) / Fold change /veh KRTAP10-2 (11738614_at) / RFU ARHGAP8 /// PRR5-ARHGAP8 (11727945_x_at) / Fold change /veh ARHGAP8 /// PRR5-ARHGAP8 (11727945_x_at) / RFU KRTAP5-7 /// NADSYN1 (11734609_at) / Fold change /veh KRTAP5-7 /// NADSYN1 (11734609_at) / RFU RASL12 (11751679_a_at) / Fold change /veh RASL12 (11751679_a_at) / RFU CDKN2B (11736163_a_at) / Fold change /veh CDKN2B (11736163_a_at) / RFU PRF1 (11729649_at) / Fold change /veh PRF1 (11729649_at) / RFU, ZNF638 /// ZNF638-IT1 / Fold change vs veh, ZNF638 /// ZNF638-IT1 / RFU, PANK3 / Fold change vs veh, PANK3 / RFU, SH3YL1 / Fold change vs veh, SH3YL1 / RFU, ZEB2 / Fold change vs veh, ZEB2 / RFU, NRIP1 / Fold change vs veh, NRIP1 / RFU, PTTG1IP / Fold change vs veh, PTTG1IP / RFU, CAPN2 / Fold change vs veh, CAPN2 / RFU, MED14 / Fold change vs veh, MED14 / RFU, SNORA58 / Fold change vs veh, SNORA58 / RFU, C1orf63 / Fold change vs veh, C1orf63 / RFU, LRRFIP1 / Fold change vs veh, LRRFIP1 / RFU, NDUFAF7 / Fold change vs veh, NDUFAF7 / RFU, SLC12A2 / Fold change vs veh, SLC12A2 / RFU, IBTK / Fold change vs veh, IBTK / RFU, ESF1 / Fold change vs veh, ESF1 / Fold change vs veh, TMEM50B / RFU, TAOK1 / Fold change vs veh, TAOK1 / RFU, ACBD3 / Fold change vs veh, ACBD3 / RFU, TMA16 / Fold change vs veh, TMA16 / RFU, RWDD3 / Fold change vs veh, RWDD3 / RFU, BCAT1 / Fold change vs veh, BCAT1 / RFU, EDEM3 / Fold change vs veh, EDEM3 / RFU, TMEM33 / Fold change vs veh, TMEM33 / RFU, WDR75 / Fold change vs veh, WDR75 / RFU, AHCTF1 / Fold change vs veh, AHCTF1 / RFU, TFRC / Fold change vs veh, TFRC / RFU, ZDHHC17 / Fold change vs veh, ZDHHC17 / RFU, NOM1 / Fold change vs veh, NOM1 / RFU, ARL8B / Fold change vs veh, ARL8B / RFU, ZBTB11 / Fold change vs veh, ZBTB11 / RFU, TAMM41 / Fold change vs veh, TAMM41 / RFU, KIAA1704 /// LOC100996395 / Fold change vs veh, KIAA1704 /// LOC100996395 / RFU, ING1 / Fold change vs veh, ING1 / RFU, TRMT61B / Fold change vs veh, TRMT61B / RFU, FUBP3 / Fold change vs veh, FUBP3 / RFU, TP53 / Fold change vs veh, TP53 / RFU, TNKS2 / Fold change vs veh, TNKS2 / RFU, ZFP14 / Fold change vs veh, ZFP14 / RFU, ACTR2 / Fold change vs veh, ACTR2 / RFU, PPP3R1 / Fold change vs veh, PPP3R1 / RFU, PIK3R1 / Fold change vs veh, PIK3R1 / RFU, HNRNPA1 / Fold change vs veh, HNRNPA1 / RFU, RNF170 / Fold change vs veh, RNF170 / RFU, ZNF28 / Fold change vs veh, ZNF28 / RFU, RNGTT / Fold change vs veh, RNGTT / RFU, OGT / Fold change vs veh, OGT / RFU, BRD1 / Fold change vs veh, BRD1 / RFU, MARS / Fold change vs veh, MARS / RFU, ZNF655 / Fold change vs veh, ZNF655 / RFU, FAHD1 / Fold change vs veh, FAHD1 / RFU, BDP1 / Fold change vs veh, BDP1 / RFU, LRRCC1 / Fold change vs veh, LRRCC1 / RFU, ARID1A / Fold change vs veh, ARID1A / RFU, ZNF146 / Fold change vs veh, ZNF146 / RFU, ZNF330 / Fold change vs veh, ZNF330 / RFU, GPN3 / Fold change vs veh, GPN3 / RFU, C9orf123 / Fold change vs veh, C9orf123 / RFU, N4BP2L2 / Fold change vs veh, N4BP2L2 / RFU, ARFIP1 / Fold change vs veh, ARFIP1 / RFU, FAM179B / Fold change vs veh, FAM179B / RFU, BCL10 / Fold change vs veh, BCL10 / RFU, UHRF1BP1L / Fold change vs veh, UHRF1BP1L / RFU, BET1 / Fold change vs veh, BET1 / RFU, CNOT2 / Fold change vs veh, CNOT2 / RFU, ZNF268 / Fold change vs veh, ZNF268 / Fold change vs veh, ZNF507 / RFU, DGCR2 / Fold change vs veh, DGCR2 / RFU, WDSUB1 / Fold change vs veh, WDSUB1 / Fold change vs veh, HSP90B1 /// MIR3652 / RFU, ADSS / Fold change vs veh, ADSS / RFU, GK / Fold change vs veh, GK / RFU, ZNF148 / Fold change vs veh, ZNF148 / RFU, TAF9 / Fold change vs veh, TAF9 / RFU, SLC1A5 / Fold change vs veh, SLC1A5 / RFU, SLMO2 / Fold change vs veh, SLMO2 / RFU, ABCC4 / Fold change vs veh, ABCC4 / RFU, LOC101060439 /// RAP1B / Fold change vs veh, LOC101060439 /// RAP1B / RFU, RFX7 / Fold change vs veh, RFX7 / RFU, GTPBP10 / Fold change vs veh, GTPBP10 / RFU, CNEP1R1 / Fold change vs veh, CNEP1R1 / RFU, BIVM-ERCC5 /// ERCC5 / Fold change vs veh, BIVM-ERCC5 /// ERCC5 / RFU, ILF3 / Fold change vs veh, ILF3 / RFU 11762660_at / Fold change /veh 11762660_at / RFU VCAN (11757783_s_at) / Fold change /veh VCAN (11757783_s_at) / RFU DDX43 (11728927_at) / Fold change /veh DDX43 (11728927_at) / RFU KRT8 (11758188_x_at) / Fold change /veh KRT8 (11758188_x_at) / RFU NKD1 (11759106_at) / Fold change /veh NKD1 (11759106_at) / RFU SRD5A1 (11742802_a_at) / Fold change /veh SRD5A1 (11742802_a_at) / RFU TPSAB1 /// TPSB2 (11721975_s_at) / Fold change /veh TPSAB1 /// TPSB2 (11721975_s_at) / RFU GSTM3 (11746129_a_at) / Fold change /veh GSTM3 (11746129_a_at) / RFU IL23R (11737362_x_at) / Fold change /veh IL23R (11737362_x_at) / RFU TMEM51 (11727254_a_at) / Fold change /veh TMEM51 (11727254_a_at) / RFU PIWIL2 (11732686_x_at) / Fold change /veh PIWIL2 (11732686_x_at) / RFU ORM1 (11744905_x_at) / Fold change /veh ORM1 (11744905_x_at) / RFU CCDC152 (11743942_at) / Fold change /veh CCDC152 (11743942_at) / RFU ECM1 (11717891_a_at) / Fold change /veh ECM1 (11717891_a_at) / RFU IL23R (11748794_a_at) / Fold change /veh IL23R (11748794_a_at) / RFU TNFAIP8L3 (11732012_x_at) / Fold change /veh TNFAIP8L3 (11732012_x_at) / RFU MBOAT4 (11741988_at) / Fold change /veh MBOAT4 (11741988_at) / RFU 11764193_at / Fold change /veh 11764193_at / RFU TMEM53 (11763286_at) / Fold change /veh TMEM53 (11763286_at) / RFU MAGEB2 (11727129_at) / Fold change /veh MAGEB2 (11727129_at) / RFU TMEM200A (11744735_a_at) / Fold change /veh TMEM200A (11744735_a_at) / RFU CCDC152 (11751479_a_at) / Fold change /veh CCDC152 (11751479_a_at) / RFU FAM211A (11726209_a_at) / Fold change /veh FAM211A (11726209_a_at) / RFU RGS16 (11746705_a_at) / Fold change /veh RGS16 (11746705_a_at) / RFU VCAN (11755009_s_at) / Fold change /veh VCAN (11755009_s_at) / RFU RHOB (11743442_s_at) / Fold change /veh RHOB (11743442_s_at) / RFU RGS16 (11720943_a_at) / Fold change /veh RGS16 (11720943_a_at) / RFU RGS16 (11720944_at) / Fold change /veh RGS16 (11720944_at) / RFU, VPS4B / Fold change vs veh, VPS4B / RFU, CREB1 / Fold change vs veh, CREB1 / RFU, DNAJC13 / Fold change vs veh, DNAJC13 / RFU, GNAQ / Fold change vs veh, GNAQ / RFU, CDK5R1 / Fold change vs veh, CDK5R1 / RFU, ZRANB3 / Fold change vs veh, ZRANB3 / RFU, CUL4A / Fold change vs veh, CUL4A / RFU, CCNY / Fold change vs veh, CCNY / RFU, UFL1 / Fold change vs veh, UFL1 / RFU, COG3 / Fold change vs veh, COG3 / RFU, DIAPH2 / Fold change vs veh, DIAPH2 / RFU, SKA2 / Fold change vs veh, SKA2 / RFU, AFF3 / Fold change vs veh, AFF3 / RFU, LMF1 / Fold change vs veh, LMF1 / RFU, IPO11 / Fold change vs veh, IPO11 / RFU, DFFB / Fold change vs veh, DFFB / RFU, FOXP1 / Fold change vs veh, FOXP1 / RFU, CARD8 / Fold change vs veh, CARD8 / RFU, STRN3 / Fold change vs veh, STRN3 / RFU, ADK / Fold change vs veh, ADK / RFU, RASSF2 / Fold change vs veh, RASSF2 / RFU, WIPF1 / Fold change vs veh, WIPF1 / RFU, LARP1B / Fold change vs veh, LARP1B / RFU, RASA1 / Fold change vs veh, RASA1 / RFU, RB1 / Fold change vs veh, RB1 / RFU, PPFIA1 / Fold change vs veh, PPFIA1 / RFU, MAT2A / Fold change vs veh, MAT2A / RFU, CCT5 / Fold change vs veh, CCT5 / RFU, WDR92 / Fold change vs veh, WDR92 / RFU, CUX1 / Fold change vs veh, CUX1 / RFU, TTC7A / Fold change vs veh, TTC7A / RFU, TMEM135 / Fold change vs veh, TMEM135 / RFU, DEPTOR / Fold change vs veh, DEPTOR / RFU, CPM / Fold change vs veh, CPM / RFU, DNAJB6 / Fold change vs veh, DNAJB6 / RFU, CACNA2D3 / Fold change vs veh, CACNA2D3 / RFU, DTX4 / Fold change vs veh, DTX4 / RFU, TFCP2 / Fold change vs veh, TFCP2 / RFU, GMCL1 /// GMCL1P1 / Fold change vs veh, GMCL1 /// GMCL1P1 / RFU, AEBP2 / Fold change vs veh, AEBP2 / RFU, SNHG1 /// SNORD22 /// SNORD25 /// SNORD26 /// SNORD27 /// SNORD28 /// SNORD29 /// SNORD31 / Fold change vs veh, SNHG1 /// SNORD22 /// SNORD25 /// SNORD26 /// SNORD27 /// SNORD28 /// SNORD29 /// SNORD31 / Fold change (Aza/veh), C12orf56 (ProbeSet 11735607_a_at) / Fold change (ACY-1035/veh), C12orf56 (ProbeSet 11735607_a_at) / Fold change (Aza/veh), FGFR1OP (ProbeSet 11751329_s_at) / Fold change (ACY-1035/veh), FGFR1OP (ProbeSet 11751329_s_at) / Fold change (Aza/veh), VPS36 (ProbeSet 11739960_a_at) / Fold change (ACY-1035/veh), VPS36 (ProbeSet 11739960_a_at) / RFU SYPL1 (11715823_x_at) / Fold change /veh SYPL1 (11715823_x_at) / RFU IGFBP7 (11715501_s_at) / Fold change /veh IGFBP7 (11715501_s_at) / RFU REEP3 (11722064_at) / Fold change /veh REEP3 (11722064_at) / RFU IGLL1 (11728026_x_at) / Fold change /veh IGLL1 (11728026_x_at): dose or concentration left out as unconfirmed",
  "details": "MV-4-11 cells, 48 hours",
  "data": [
    {"smiles": "Nc1ncn([C@@H]2O[C@H](CO)[C@@H](O)[C@H]2O)c(=O)n1", "note": "[azacitidine]", "values": [
      {"measurement": "RFU NKD1 (11759106_at)", "value": 23.64, "unit": "RFU"}
    ]}
  ]
}
